This passage reports T/C results from PubChem BioAssay AID248 (DTP/NCI, 2004).

“And” between values parts separate entries of the source, which are not always exact repeats. Equal values may be shown once. Toxic doses and inconclusive results are not listed.

The assay concerns L1210 leukemia ip in BDF1 mice, survival T/C. Kind of assay: NCI In Vivo Anticancer Drug Screen. Data for tumor model L1210 Leukemia (intraperitoneal) in B6D2F1 (BDF1) mice. The conditions noted are these: endpoint: mean survival time, higher = longer survival. An outline of the steps: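 Transplanted-tumor mice were given test agent; controls received vehicle only. Survival readings from the two groups were divided (treated over control).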

Setting [1] is: dose: 400.0 mg/kg/injection, schedule: Q01DX001 (ip), vehicle: saline.
[2] abbreviates: dose: 100.0 mg/kg/injection, schedule: Q01DX009 (ip), vehicle: saline.
Where [3] appears, read: dose: 200.0 mg/kg/injection, schedule: Q01DX009 (ip), vehicle: saline.
Setting [4] is: dose: 100.0 mg/kg/injection, schedule: Q04DX003 (ip), vehicle: Klucel (hydroxypropylcellulose) (HPC).
Where [5] appears, read: dose: 200.0 mg/kg/injection, schedule: Q04DX003 (ip), vehicle: Klucel (hydroxypropylcellulose) (HPC).
Setting [6] is: dose: 400.0 mg/kg/injection, schedule: Q04DX003 (ip), vehicle: Klucel (hydroxypropylcellulose) (HPC).

Consider `CCNc1nncs1`, for which the T/C by setting is: (dose: 7.0 mg/kg/injection, schedule: Q03HX032 (ip), vehicle: saline) 97 % of control; (dose: 11.0 mg/kg/injection, schedule: Q03HX032 (ip), vehicle: saline) 104 % of control; (dose: 16.0 mg/kg/injection, schedule: Q03HX032 (ip), vehicle: saline) 105 % of control; (dose: 17.25 mg/kg/injection, schedule: Q01DX Z (ip), vehicle: carboxymethylcellulose (CMC)) 102 % of control; (dose: 24.0 mg/kg/injection, schedule: Q03HX032 (ip), vehicle: saline) 101 % of control; (dose: 27.0 mg/kg/injection, schedule: Q01DX015 (ip), vehicle: saline) 106 % of control. The T/C by setting is: (dose: 27.6 mg/kg/injection, schedule: Q01DX Z (ip), vehicle: carboxymethylcellulose (CMC)) 100 % of control and 114 % of control; (dose: 34.5 mg/kg/injection, schedule: Q01DX Z (ip), vehicle: carboxymethylcellulose (CMC)) 98 % of control and 101 % of control; (dose: 36.0 mg/kg/injection, schedule: Q03HX032 (ip), vehicle: saline) 118 % of control; (dose: 40.0 mg/kg/injection, schedule: Q01DX015 (ip), vehicle: saline) 103 % of control; (dose: 46.0 mg/kg/injection, schedule: Q01DX Z (ip), vehicle: carboxymethylcellulose (CMC)) 100 % of control and 107 % of control; (dose: 60.0 mg/kg/injection, schedule: Q01DX015 (ip), vehicle: saline) 108 % of control. Moreover, the T/C runs as follows: (dose: 64.0 mg/kg/injection, schedule: Q02DX010 (ip), vehicle: carboxymethylcellulose (CMC)) 117 % of control; (dose: 75.0 mg/kg/injection, schedule: Q01DX Z (ip), vehicle: saline) 170 % of control; (dose: 96.0 mg/kg/injection, schedule: Q02DX010 (ip), vehicle: carboxymethylcellulose (CMC)) 123 % of control; (dose: 103.5 mg/kg/injection, schedule: Q01DX Z (ip), vehicle: carboxymethylcellulose (CMC)) 123 % of control; (dose: 138.0 mg/kg/injection, schedule: Q01DX Z (ip), vehicle: carboxymethylcellulose (CMC)) 112 % of control; (dose: 150.0 mg/kg/injection, schedule: Q01DX Z (ip), vehicle: saline) 176 % of control. Also, the T/C is 115 % of control (dose: 150.0 mg/kg/injection, schedule: Q01DX Z (oral), vehicle: saline); 104 % of control (dose: 265.0 mg/kg/injection, schedule: Q01DX001 (ip), vehicle: saline); 106 % of control (dose: 270.0 mg/kg/injection, schedule: Q01DX001 (ip), vehicle: saline); 98 % of control (dose: 300.0 mg/kg/injection, schedule: Q01DX Z (oral), vehicle: saline); 120 % of control (dose: 337.0 mg/kg/injection, schedule: Q02DX010 (ip), vehicle: carboxymethylcellulose (CMC)); 109 % of control under setting [1]. Moreover, the T/C was 112 % of control and 76 % of control (dose: 562.0 mg/kg/injection, schedule: Q02DX010 (ip), vehicle: carboxymethylcellulose (CMC)); 84 % of control and 88 % of control (dose: 562.5 mg/kg/injection, schedule: Q02DX010 (ip), vehicle: carboxymethylcellulose (CMC)); 117 % of control (dose: 600.0 mg/kg/injection, schedule: Q01DX001 (ip), vehicle: saline); 87 % of control (dose: 600.0 mg/kg/injection, schedule: Q01DX Z (oral), vehicle: saline).

`CCS(=O)(=O)N(CC(=O)O)Cc1ccccc1`: the T/C is 100 % of control (dose: 50.0 mg/kg/injection, schedule: Q01DX009 (ip), vehicle: saline); 104 % of control under setting [2]; 100 % of control (dose: 100.0 mg/kg/injection, schedule: Q04DX003 (ip), vehicle: saline); 93 % of control under setting [3]; 96 % of control (dose: 200.0 mg/kg/injection, schedule: Q04DX003 (ip), vehicle: saline); 95 % of control (dose: 300.0 mg/kg/injection, schedule: Q01DX009 (ip), vehicle: saline). In addition, the T/C (dose: 400.0 mg/kg/injection, schedule: Q04DX003 (ip), vehicle: saline) is 94 % of control.

Turning to `CCCCN(CCCC)CC(O)c1cccc2c1cc(Cl)c1ccccc12` (stereo unspecified), the T/C under setting [4] was 102 % of control, the T/C under setting [5] was 97 % of control and the T/C under setting [6] was 91 % of control.

With `NCC(O)COc1ccccc1N` (stereo unspecified), the T/C (dose: 3.12 mg/kg/injection, schedule: Q01DX009 (ip), vehicle: saline) was 97 % of control; the T/C (dose: 6.25 mg/kg/injection, schedule: Q01DX009 (ip), vehicle: saline) is 106 % of control; the T/C (dose: 12.5 mg/kg/injection, schedule: Q01DX009 (ip), vehicle: saline) is 100 % of control; the T/C (dose: 12.5 mg/kg/injection, schedule: Q04DX003 (ip), vehicle: saline) is 93 % of control.

`CC1(CCc2ccc(N)cc2)NC(=O)NC1=O` (stereo unspecified): the T/C under setting [4] was 110 % of control, the T/C under setting [5] is 96 % of control and the T/C under setting [6] is 93 % of control.

For `NC(=O)CCSCCC(N)=O`, the T/C reads like this: under setting [2], 114 % of control; under setting [3], 118 % of control; (dose: 400.0 mg/kg/injection, schedule: Q01DX009 (ip), vehicle: saline) 111 % of control.

For `N#CNS(=O)(=O)c1ccccc1`, the T/C by setting is: (dose: 100.0 mg/kg/injection, schedule: Q01DX001 (ip), vehicle: saline) 98 % of control; (dose: 200.0 mg/kg/injection, schedule: Q01DX001 (ip), vehicle: saline) 92 % of control; under setting [1], 98 % of control.

For `COC1Nc2cc3ccccc3cc2-c2ccccc21` (stereo unspecified), the T/C by setting is: (dose: 100.0 mg/kg/injection, schedule: Q01DX001 (ip), vehicle: carboxymethylcellulose (CMC)) 97 % of control; (dose: 200.0 mg/kg/injection, schedule: Q01DX001 (ip), vehicle: carboxymethylcellulose (CMC)) 97 % of control.

Turning to `Cc1cc(C)c(NC(=O)NC(C)C)c(C)c1`, the T/C (dose: 100.0 mg/kg/injection, schedule: Q01DX009 (ip), vehicle: Klucel (hydroxypropylcellulose) (HPC)) is 104 % of control; the T/C under setting [4] was 98 % of control; the T/C (dose: 200.0 mg/kg/injection, schedule: Q01DX009 (ip), vehicle: Klucel (hydroxypropylcellulose) (HPC)) is 101 % of control; the T/C under setting [5] is 105 % of control; the T/C (dose: 400.0 mg/kg/injection, schedule: Q01DX009 (ip), vehicle: Klucel (hydroxypropylcellulose) (HPC)) was 91 % of control; the T/C under setting [6] was 91 % of control.

For `O=C1NC2(CCC(O)CC2)C(O)(c2ccccc2)C12CCCCC2` (stereo unspecified), the T/C is 105 % of control (dose: 75.0 mg/kg/injection, schedule: Q01DX001 (ip), vehicle: saline); 86 % of control (dose: 150.0 mg/kg/injection, schedule: Q01DX001 (ip), vehicle: saline); 86 % of control (dose: 300.0 mg/kg/injection, schedule: Q01DX001 (ip), vehicle: saline).

Consider `CC1CN=C(c2c(O)ccc3ccccc23)S1` (stereo unspecified), for which the T/C (dose: 100.0 mg/kg/injection, schedule: Q04DX002 (ip), vehicle: gum acacia) is 96 % of control; the T/C (dose: 200.0 mg/kg/injection, schedule: Q04DX002 (ip), vehicle: gum acacia) was 93 % of control; the T/C (dose: 400.0 mg/kg/injection, schedule: Q04DX002 (ip), vehicle: gum acacia) was 90 % of control.

With `CCCCCCCCCCCCCCCCCCNC(=O)Nc1cc(C)ccc1C`, the T/C was 87 % of control (dose: 100.0 mg/kg/injection, schedule: Q01DX009 (ip), vehicle: gum acacia); 92 % of control (dose: 100.0 mg/kg/injection, schedule: Q04DX003 (ip), vehicle: gum acacia); 96 % of control (dose: 200.0 mg/kg/injection, schedule: Q01DX009 (ip), vehicle: gum acacia); 92 % of control (dose: 200.0 mg/kg/injection, schedule: Q04DX003 (ip), vehicle: gum acacia); 92 % of control (dose: 400.0 mg/kg/injection, schedule: Q01DX009 (ip), vehicle: gum acacia); 87 % of control (dose: 400.0 mg/kg/injection, schedule: Q04DX003 (ip), vehicle: gum acacia).

Consider `CCCNS(=O)(=O)c1ccc(C(=S)OCC)cc1`, for which the T/C is 98 % of control (dose: 100.0 mg/kg/injection, schedule: Q01DX001 (ip), vehicle: Klucel (hydroxypropylcellulose) (HPC)); 98 % of control (dose: 200.0 mg/kg/injection, schedule: Q01DX001 (ip), vehicle: Klucel (hydroxypropylcellulose) (HPC)); 94 % of control (dose: 400.0 mg/kg/injection, schedule: Q01DX001 (ip), vehicle: Klucel (hydroxypropylcellulose) (HPC)).

As to `C1=CC2(C=C1)OC21CCC2(C=CC3(C2)OC3C2CCCCC2)CC1` (stereo unspecified), the T/C was 94 % of control (dose: 50.0 mg/kg/injection, schedule: Q01DX009 (ip), vehicle: saline with Tween-80) and 94 % of control (dose: 100.0 mg/kg/injection, schedule: Q01DX009 (ip), vehicle: saline with Tween-80).
